Where two headings read alike, the source gives them in different places.
System: Sprague-Dawley rats
Assay: Clinical chemistry
Type: in vivo, Rattus norvegicus
Design: key to Cholesterol, Dose response / Triglyserides, Dose response / Glucose, Dose response / Albumin, Dose response / K, Dose response / Total bilirubin, Dose response: D: significant dose response (for results, see Table 2); T: significant trend
Details: for CED, Glucose / CED, Potassium / CED-L, Glucose / CED-L, Potassium / CED, Alkaline phosphatase / CED, Chlolesterol / CED, Total Bilirubin / CED-L, Alkaline phosphatase / CED-L, Chlolesterol / CED-L, Total Bilirubin / CED, Albumin / CED-L, Albumin / CED, Total protein / CED, Triglycerides / CED-L, Total protein / CED-L, Triglycerides: adipose tissue concentration based; for Emax: Rattus norvegicus
Protocol: Spectrophotometric methods were used for the determination of serum total calcium, cholesterol, creatinine, glucose, triglycerides and urea. Serum sodium, potassium and chloride concentrations were measured directly by ion selective electrodes. The analyses were performed by a clinical chemistry analyzer (Konelab 30i, ThermoFisher Scientific, Vantaa, Finland). Plasma lactate dehydrogenase (LD) activity was measured according to the recommendations of the International Federation of Clinical Chemistry (IFCC 1994/I) using Konelab 60i clinical chemistry analyzer. Methods and results for liver related parameters (serum alanine aminotransferase [ALT] activity, alkaline phosphatase [ALP] activity, albumin, total protein and total bilirubin are reported separately.
Data were also analyzed using the BMD method, which is based on dose-response modeling of the full data set using a nested family of exponential and Hill models. The analyses were done on data of males and females combined, using sex as a covariate. […] In that case, different Critical Effect Doses (CEDs) and CEDs at the lowest bound of the confidence interval (CED-L) were generated for each sex. If no difference between sexes is detected, a CED and CED-Ls for the combined data is generated. However, this was also done if the curve fits are close, and separate analyses for males and females were then performed manually. CEDs and CED-Ls were calculated at the predefined Critical Effect Size (CES) of 5% (EFSA standard) or 10%.

[1] = females, total dose 0-1700 mg/kg bw
[2] = females, total dose 10 mg/kg bw
[3] = females, total dose 30 mg/kg bw
[4] = females, total dose 100 mg/kg bw
[5] = females, total dose 300 mg/kg bw
[6] = females, total dose 1000 mg/kg bw
[7] = females, total dose 1700 mg/kg bw

Clc1cc(Cl)c(-c2cc(Cl)c(Cl)c(Cl)c2Cl)cc1Cl [PCB 180, 2,2′,3′,4,4′,5,5′-heptachlorobiphenyl]
CED, Glucose (F, CES 5%, model E2): 4450 µg/g lipid
CED, Potassium (F, CES 5%, model E2): 7900 µg/g lipid
CED-L, Glucose (F, CES 5%, model E2): 2648 µg/g lipid
CED-L, Potassium (F, CES 5%, model E2): 5086 µg/g lipid
CED, Alkaline phosphatase (F, CES 5%, model E4): 308 µg/g lipid
CED, Chlolesterol (F, CES 5%, model E4): 640 µg/g lipid
CED, Total Bilirubin (F, CES 5%, model E4): 19.4 µg/g lipid
CED-L, Alkaline phosphatase (F, CES 5%, model E4): 136 µg/g lipid
CED-L, Chlolesterol (F, CES 5%, model E4): 387 µg/g lipid
CED-L, Total Bilirubin (F, CES 5%, model E4): 3.77 µg/g lipid
CED, Glucose (F, CES 10%, model E2): 9140 µg/g lipid
CED, Potassium (F, CES 10%, model E2): 16200 µg/g lipid
CED-L, Glucose (F, CES 10%, model E2): 5440 µg/g lipid
CED-L, Potassium (F, CES 10%, model E2): 10450 µg/g lipid
CED, Alkaline phosphatase (F, CES 10%, model E4): 701 µg/g lipid
CED, Chlolesterol (F, CES 10%, model E4): 1330 µg/g lipid
CED, Total Bilirubin (F, CES 10%, model E4): 48.2 µg/g lipid
CED-L, Alkaline phosphatase (F, CES 10%, model E4): 309 µg/g lipid
CED-L, Chlolesterol (F, CES 10%, model E4): 813 µg/g lipid
CED-L, Total Bilirubin (F, CES 10%, model E4): 8.98 µg/g lipid
CED, Albumin (M, CES 5%, model E2): 6750 µg/g lipid
CED, Alkaline phosphatase (M, CES 5%, model E2): 2300 µg/g lipid
CED, Glucose (M, CES 5%, model E2): 866 µg/g lipid
CED-L, Albumin (M, CES 5%, model E2): 4696 µg/g lipid
CED-L, Alkaline phosphatase (M, CES 5%, model E2): 1393 µg/g lipid
CED-L, Glucose (M, CES 5%, model E2): 632 µg/g lipid
CED, Chlolesterol (M, CES 5%, model E4): 177 µg/g lipid
CED, Total protein (M, CES 5%, model E4): 1080 µg/g lipid
CED, Triglycerides (M, CES 5%, model E4): 12.5 µg/g lipid
CED-L, Chlolesterol (M, CES 5%, model E4): 91.4 µg/g lipid
CED-L, Total protein (M, CES 5%, model E4): 575 µg/g lipid
CED-L, Triglycerides (M, CES 5%, model E4): 7.26 µg/g lipid
CED, Albumin (M, CES 10%, model E2): 13200 µg/g lipid
CED, Alkaline phosphatase (M, CES 10%, model E2): 4730 µg/g lipid
CED, Glucose (M, CES 10%, model E2): 1780 µg/g lipid
CED-L, Albumin (M, CES 10%, model E2): 9174 µg/g lipid
CED-L, Alkaline phosphatase (M, CES 10%, model E2): 2861 µg/g lipid
CED-L, Glucose (M, CES 10%, model E2): 1297 µg/g lipid
CED, Chlolesterol (M, CES 10%, model E4): 365 µg/g lipid
CED, Total protein (M, CES 10%, model E4): 2970 µg/g lipid
CED, Triglycerides (M, CES 10%, model E4): 26.2 µg/g lipid
CED-L, Chlolesterol (M, CES 10%, model E4): 189 µg/g lipid
CED-L, Total protein (M, CES 10%, model E4): 1629 µg/g lipid
CED-L, Triglycerides (M, CES 10%, model E4): 15.2 µg/g lipid
Emax (F, model E2, controls vs high dose according to the fitted model, read-out: Maximum response, Glucose): -12.2%
Emax (F, model E2, controls vs high dose according to the fitted model, read-out: Maximum response, Potassium): -7.07%
Emax (F, model E4, controls vs high dose according to the fitted model, read-out: Maximum response, Alkaline phosphatase): -25.7%
Emax (F, model E4, controls vs high dose according to the fitted model, read-out: Maximum response, Chlolesterol): 53.8%
Emax (F, model E4, controls vs high dose according to the fitted model, read-out: Maximum response, Total Bilirubin): -18.2%
Emax (females, controls vs high dose, fitted model, read-out: Alkaline phosphatase, Maximum response): -25.7%
Emax (females, controls vs high dose, fitted model, read-out: Chlolesterol, Maximum response): 54.1%
Emax (females, controls vs high dose, fitted model, read-out: Glucose, Maximum response): -12.1%
Emax (females, controls vs high dose, fitted model, read-out: Potassium, Maximum response): -7%
Emax (females, controls vs high dose, fitted model, read-out: Total Bilirubin, Maximum response): -17.9%
Emax (males, controls vs high dose, fitted model, read-out: Albumin, Maximum response): 5.5%
Emax (males, controls vs high dose, fitted model, read-out: Alkaline phosphatase, Maximum response): -14.9%
Emax (males, controls vs high dose, fitted model, read-out: Chlolesterol, Maximum response): 80.8%
Emax (males, controls vs high dose, fitted model, read-out: Glucose, Maximum response): -35.6%
Emax (males, controls vs high dose, fitted model, read-out: Total protein, Maximum response): 14.1%
Emax (males, controls vs high dose, fitted model, read-out: Triglycerides, Maximum response): -62.2%
Emax (model E2, controls vs high dose according to the fitted model, read-out: Maximum response, Albumin): 5.49%
Emax (model E2, controls vs high dose according to the fitted model, read-out: Maximum response, Alkaline phosphatase): -15.4%
Emax (model E2, controls vs high dose according to the fitted model, read-out: Maximum response, Glucose): -35.4%
Emax (model E4, controls vs high dose according to the fitted model, read-out: Maximum response, Chlolesterol): 81.7%
Emax (model E4, controls vs high dose according to the fitted model, read-out: Maximum response, Total protein): 14.2%
Emax (model E4, controls vs high dose according to the fitted model, read-out: Maximum response, Triglycerides): -62.5%
Cholesterol, Dose response [1]: T
Glucose, Dose response [1]: T
K, Dose response [1]: T
Total bilirubin, Dose response [1]: T
Albumin (females, total dose 3 mg/kg bw): 33.8 g/L
Cholesterol (females, total dose 3 mg/kg bw): 3.11 mmol/L
Cl (females, total dose 3 mg/kg bw): 97.1 mmol/L
Creatinine (females, total dose 3 mg/kg bw): 51.7 µmol/L
Glucose (females, total dose 3 mg/kg bw): 13.7 mmol/L
K (females, total dose 3 mg/kg bw): 5.59 mmol/L
Na (females, total dose 3 mg/kg bw): 142.1 mmol/L
Total Ca (females, total dose 3 mg/kg bw): 3.40 mmol/L
Total bilirubin (females, total dose 3 mg/kg bw): 1.59 µmol/L
Triglyserides (females, total dose 3 mg/kg bw): 0.91 mmol/L
Urea (females, total dose 3 mg/kg bw): 9.9 mmol/L
Albumin [2]: 33.9 g/L
Cholesterol [2]: 3.35 mmol/L
Cl [2]: 97.2 mmol/L
Creatinine [2]: 53.8 µmol/L
Glucose [2]: 14.4 mmol/L
K [2]: 5.70 mmol/L
Na [2]: 143.6 mmol/L
Total Ca [2]: 3.42 mmol/L
Total bilirubin [2]: 1.66 µmol/L
Triglyserides [2]: 0.85 mmol/L
Urea [2]: 9.4 mmol/L
Albumin [3]: 32.7 g/L
Cholesterol [3]: 3.05 mmol/L
Cl [3]: 97.3 mmol/L
Creatinine [3]: 48.6 µmol/L
Glucose [3]: 13.6 mmol/L
K [3]: 5.55 mmol/L
Na [3]: 142.7 mmol/L
Total Ca [3]: 3.46 mmol/L
Total bilirubin [3]: 1.40 µmol/L
Triglyserides [3]: 1.19 mmol/L
Urea [3]: 9.5 mmol/L
Albumin [4]: 33.1 g/L
Cholesterol [4]: 3.54 mmol/L
Cl [4]: 97.0 mmol/L
Creatinine [4]: 51.3 µmol/L
Glucose [4]: 13.8 mmol/L
K [4]: 5.75 mmol/L
Na [4]: 142.5 mmol/L
Total Ca [4]: 3.44 mmol/L
Total bilirubin [4]: 1.56 µmol/L
Triglyserides [4]: 0.89 mmol/L
Urea [4]: 8.6 mmol/L
Albumin [5]: 33.5 g/L
Cholesterol [5]: 3.52 mmol/L
Cl [5]: 96.8 mmol/L
Creatinine [5]: 47.8 µmol/L
Glucose [5]: 14.0 mmol/L
K [5]: 5.54 mmol/L
Na [5]: 142.6 mmol/L
Total Ca [5]: 3.56 mmol/L
Total bilirubin [5]: 1.40 µmol/L
Triglyserides [5]: 1.12 mmol/L
Urea [5]: 10.1 mmol/L
Albumin [6]: 33.0 g/L
Cholesterol [6]: 4.16 mmol/L
Cl [6]: 97.2 mmol/L
Creatinine [6]: 51.9 µmol/L
Glucose [6]: 12.6 mmol/L
K [6]: 5.43 mmol/L
Na [6]: 142.7 mmol/L
Total Ca [6]: 3.40 mmol/L
Total bilirubin [6]: 1.43 µmol/L
Triglyserides [6]: 0.89 mmol/L
Urea [6]: 9.3 mmol/L
Albumin [7]: 33.3 g/L
Cholesterol [7]: 4.94 mmol/L
Cl [7]: 97.7 mmol/L

Source: paper PMC4138103 (PLoS ONE, 2014)
